These results are taken from ChEMBL document CHEMBL6182863, “Discovery of novel rigid STING PROTAC degraders as potential therapeutics for acute kidney injury” (Eur J Med Chem, 2025).

A word on the solubility: it is the dissolved amount per volume that the medium holds. In general, half-life refers to how long it takes for the measured level to halve.

Series [1] concerns the target Protein cereblon/Stimulator of interferon genes protein (Homo sapiens, UniProt Q96SW2+Q86WV6). The experiment in a line: PROTAC activity at CRBN/STING in human THP-1 cells assessed as induction of STING degradation at 5 uM measured after 24 hrs by Western blotting analysis relative to control. Format: cell-based. (A western blot detects proteins with antibodies after separation by electrophoresis.)

A short description of series [2]: Metabolic stability in human liver microsomes assessed as intrinsic clearance per gram of protein. Format: ADME, Microsome.
Series [3] in a line: Metabolic stability in human liver microsomes assessed as metabolic factor relative to control. It counts as ADME, Microsome.
The nature of series [4]: Water solubility of the compound at 2 mg by HPLC analysis. It counts as physicochemical.
Series [5] in a line: Metabolic stability in human liver microsomes assessed as half life. Format: ADME, Microsome. (In general: Liver microsomes are a subcellular fraction often used to study metabolism.)
Series [6] has as its target von Hippel-Lindau disease tumor suppressor/Stimulator of interferon genes protein (Homo sapiens, UniProt P40337+Q86WV6). The experiment in a line: PROTAC activity at VHL/STING (unknown origin). It counts as protein assay.

In brackets after ≈: the same amount, converted by molar mass. Activity calls are given as the source filed them. No cut-off for these calls is given here.

Chain of Protein cereblon/Stimulator of interferon genes protein (Q86WV6 whole entry, looked up): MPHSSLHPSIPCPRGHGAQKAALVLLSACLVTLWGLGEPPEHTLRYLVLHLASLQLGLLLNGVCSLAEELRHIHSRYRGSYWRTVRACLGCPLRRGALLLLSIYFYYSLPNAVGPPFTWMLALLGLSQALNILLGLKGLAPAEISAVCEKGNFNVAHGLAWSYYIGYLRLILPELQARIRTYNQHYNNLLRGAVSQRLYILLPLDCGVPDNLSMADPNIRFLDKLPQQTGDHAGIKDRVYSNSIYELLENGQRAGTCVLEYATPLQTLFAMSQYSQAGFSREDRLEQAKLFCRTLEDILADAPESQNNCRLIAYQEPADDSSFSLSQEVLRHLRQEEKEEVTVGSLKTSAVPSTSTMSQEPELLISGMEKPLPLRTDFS
Chain of Protein cereblon/Stimulator of interferon genes protein (Q96SW2 whole entry, looked up): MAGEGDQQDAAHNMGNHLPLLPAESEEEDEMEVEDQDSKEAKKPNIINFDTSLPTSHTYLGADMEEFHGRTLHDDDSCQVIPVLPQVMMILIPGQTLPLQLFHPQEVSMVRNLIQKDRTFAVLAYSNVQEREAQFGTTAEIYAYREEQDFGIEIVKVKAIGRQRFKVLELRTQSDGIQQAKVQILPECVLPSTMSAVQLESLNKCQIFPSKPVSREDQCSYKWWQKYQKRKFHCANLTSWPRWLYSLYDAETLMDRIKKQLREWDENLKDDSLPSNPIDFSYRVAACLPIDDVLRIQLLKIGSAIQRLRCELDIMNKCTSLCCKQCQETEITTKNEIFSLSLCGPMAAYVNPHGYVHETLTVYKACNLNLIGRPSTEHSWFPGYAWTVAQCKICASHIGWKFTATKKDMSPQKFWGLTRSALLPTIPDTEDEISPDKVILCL
Chain of von Hippel-Lindau disease tumor suppressor/Stimulator of interferon genes protein (P40337 whole entry): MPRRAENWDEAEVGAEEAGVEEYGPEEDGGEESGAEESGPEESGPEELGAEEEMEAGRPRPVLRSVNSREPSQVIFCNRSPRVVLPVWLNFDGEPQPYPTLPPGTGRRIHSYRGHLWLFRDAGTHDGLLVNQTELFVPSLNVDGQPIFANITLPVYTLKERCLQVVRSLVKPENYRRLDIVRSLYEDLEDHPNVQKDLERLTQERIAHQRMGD
Chain of von Hippel-Lindau disease tumor suppressor/Stimulator of interferon genes protein (Q86WV6 whole entry): as the sequence (Q86WV6 whole entry, looked up) above

`O=C1CCC(N2C(=O)c3cccc(N4CCN(CC5CCN(C(=O)CCC(=O)Nc6ccc(NC(=O)c7ccc([N+](=O)[O-])o7)cc6)CC5)CC4)c3C2=O)C(=O)N1` (stereo not drawn): in series [1], the outcome was inactive. On the same count and under the same terms, to `O=C1CCC(N2C(=O)c3cccc(N4CCN(CC5CCN(C(=O)CCCC(=O)Nc6ccc(NC(=O)c7ccc([N+](=O)[O-])o7)cc6)CC5)CC4)c3C2=O)C(=O)N1` (stereo not drawn) belongs “inactive”.

In the case of `O=C(/C=C/C(=O)Nc1ccc(NC(=O)c2ccc([N+](=O)[O-])o2)cc1)NCCCCCCNc1cccc2c1C(=O)N(C1CCC(=O)NC1=O)C2=O` (stereo not drawn), the Activity worked out at 59.2% in series [1] and 1.3% in series [3]. The CLint in series [2] was 1490 mL/min/g. This compound also gave a solubility in series [4] of 0.854 µg/mL (≈ 1.22 µM). The half-life in series [5] came to 1.41 min. For the compound `O=C(/C=C/C(=O)N1CC(N2CCN(c3cccc4c3C(=O)N(C3CCC(=O)NC3=O)C4=O)CC2)C1)Nc1ccc(NC(=O)c2ccc([N+](=O)[O-])o2)cc1` (stereo not drawn), the Activity in series [1] worked out at 30.3%. Take `O=C1CCC(N2C(=O)c3cccc(N4CCC(CN5CCN(C(=O)CCCC(=O)Nc6ccc(NC(=O)c7ccc([N+](=O)[O-])o7)cc6)CC5)C4)c3C2=O)C(=O)N1` (stereo not drawn): the Activity in series [1] is 36.3%. Consider `O=C(/C=C/C(=O)N1CCN(CC2CCN(c3cccc4c3C(=O)N(C3CCC(=O)NC3=O)C4=O)CC2)CC1)Nc1ccc(NC(=O)c2ccc([N+](=O)[O-])o2)cc1` (stereo not drawn), for which the Activity in series [1] came to 43.6%. With `O=C(/C=C/C(=O)N1CCC(CN2CCN(c3cccc4c3C(=O)N(C3CCC(=O)NC3=O)C4=O)CC2)CC1)Nc1ccc(NC(=O)c2ccc([N+](=O)[O-])o2)cc1` (stereo not drawn), the Activity in series [1] turned out to be 71.1%. For the same compound, in series [4], the solubility came to 1.562 µg/mL (≈ 2.04 µM). With `O=C(/C=C/C(=O)N1CC(CN2CCN(c3ccc4c(c3)C(=O)N(C3CCC(=O)NC3=O)C4=O)CC2)C1)Nc1ccc(NC(=O)c2ccc([N+](=O)[O-])o2)cc1` (stereo not drawn), in series [1], the result was inactive. On to `O=C(/C=C/C(=O)N1CCN(CC2CCN(c3ccc4c(c3)C(=O)N(C3CCC(=O)NC3=O)C4=O)C2)CC1)Nc1ccc(NC(=O)c2ccc([N+](=O)[O-])o2)cc1` (stereo not drawn), for which the Activity in series [1] stood at 73.6%. As for `O=C1CCC(N2C(=O)c3cccc(N4CCN(CC5CCN(C(=O)COCC(=O)Nc6ccc(NC(=O)c7ccc([N+](=O)[O-])o7)cc6)CC5)CC4)c3C2=O)C(=O)N1` (stereo not drawn), the Activity in series [1] was found to be 32.6%. Still for that read-out and setting: to `O=C(/C=C/C(=O)N1CCN(C2CCN(c3ccc4c(c3)C(=O)N(C3CCC(=O)NC3=O)C4=O)C2)CC1)Nc1ccc(NC(=O)c2ccc([N+](=O)[O-])o2)cc1` (stereo not drawn) belongs “inactive”.

On to `CCn1nc(C)cc1C(=O)Nc1nc2cc(C(=O)NCCCCCCCCC(=O)N[C@@H](C(=O)N3C[C@H](O)C[C@H]3C(=O)NCc3ccc(-c4scnc4C)cc3)C(C)(C)C)cc(OC)c2n1C/C=C/Cn1c(NC(=O)c2cc(C)nn2CC)nc2cc(C(N)=O)cc(OCCCN3CCOCC3)c21`, for which the DC50 in series [6] worked out at 227 nM. Consider `O=C(/C=C/C(=O)N1CCN(C2CCN(c3cccc4c3C(=O)N(C3CCC(=O)NC3=O)C4=O)CC2)CC1)Nc1ccc(NC(=O)c2ccc([N+](=O)[O-])o2)cc1` (stereo not drawn), for which, in series [1], the Activity was found to be 25.3%. With `O=C(/C=C/C(=O)N1CCC(CN2CCN(c3ccc4c(c3)C(=O)N(C3CCC(=O)NC3=O)C4=O)CC2)CC1)Nc1ccc(NC(=O)c2ccc([N+](=O)[O-])o2)cc1` (stereo not drawn), the Activity in series [1] worked out at 52.3%. For `O=C1CCC(N2C(=O)c3cccc(N4CCN(CC5CN(C(=O)CCCC(=O)Nc6ccc(NC(=O)c7ccc([N+](=O)[O-])o7)cc6)C5)CC4)c3C2=O)C(=O)N1` (stereo not drawn), the result in series [1] was inactive. Take `O=C(/C=C/C(=O)N1CCC(N2CCN(c3cccc4c3C(=O)N(C3CCC(=O)NC3=O)C4=O)CC2)CC1)Nc1ccc(NC(=O)c2ccc([N+](=O)[O-])o2)cc1` (stereo not drawn): the outcome in series [1] was inactive. Take `O=C(/C=C/C(=O)N1CCN(c2cccc3c2C(=O)N(C2CCC(=O)NC2=O)C3=O)CC1)Nc1ccc(NC(=O)c2ccc([N+](=O)[O-])o2)cc1` (stereo not drawn): the Activity in series [1] is 20.3%. On the same count and under the same terms, in the case of `O=C1CCC(N2C(=O)c3cccc(N4CCC(N5CCN(C(=O)COCC(=O)Nc6ccc(NC(=O)c7ccc([N+](=O)[O-])o7)cc6)CC5)C4)c3C2=O)C(=O)N1` (stereo not drawn) it was “inactive”; in that of `O=C(/C=C/C(=O)N1CCN(CC2CCCN2c2ccc3c(c2)C(=O)N(C2CCC(=O)NC2=O)C3=O)CC1)Nc1ccc(NC(=O)c2ccc([N+](=O)[O-])o2)cc1` (stereo not drawn), 72.3%.

Turning to `O=C1CCC(N2C(=O)c3cccc(N4CCC(CN5CCN(C(=O)CCC(=O)Nc6ccc(NC(=O)c7ccc([N+](=O)[O-])o7)cc6)CC5)C4)c3C2=O)C(=O)N1` (stereo not drawn), the Activity in series [1] worked out at 44.7%. For `O=C(/C=C/C(=O)N1CCN(CC2CCCN2c2cccc3c2C(=O)N(C2CCC(=O)NC2=O)C3=O)CC1)Nc1ccc(NC(=O)c2ccc([N+](=O)[O-])o2)cc1` (stereo not drawn), the Activity in series [1] came to 77.7%. The compound also returned a solubility in series [4] of 2.872 µg/mL (≈ 3.82 µM). Take `O=C(/C=C/C(=O)N1CCN(CC2CCN(c3ccc4c(c3)C(=O)N(C3CCC(=O)NC3=O)C4=O)CC2)CC1)Nc1ccc(NC(=O)c2ccc([N+](=O)[O-])o2)cc1` (stereo not drawn): the Activity in series [1] turned out to be 63.6%. Same read-out and setting: in the case of `O=C1CCC(N2C(=O)c3cccc(N4CCN(CC5CN(C(=O)CCC(=O)Nc6ccc(NC(=O)c7ccc([N+](=O)[O-])o7)cc6)C5)CC4)c3C2=O)C(=O)N1` (stereo not drawn) it was 40.7%; in that of `O=C1CCC(N2C(=O)c3cccc(N4CCN(CC5CN(C(=O)COCC(=O)Nc6ccc(NC(=O)c7ccc([N+](=O)[O-])o7)cc6)C5)CC4)c3C2=O)C(=O)N1` (stereo not drawn), “inactive”; in that of `O=C1CCC(N2C(=O)c3cccc(N4CCC(N5CCN(C(=O)CCCC(=O)Nc6ccc(NC(=O)c7ccc([N+](=O)[O-])o7)cc6)CC5)C4)c3C2=O)C(=O)N1` (stereo not drawn), 40.5%.

As for `O=C(/C=C/C(=O)N1CCN(C2CCN(c3cccc4c3C(=O)N(C3CCC(=O)NC3=O)C4=O)C2)CC1)Nc1ccc(NC(=O)c2ccc([N+](=O)[O-])o2)cc1` (stereo not drawn), the Activity in series [1] was 58%. This compound also had a solubility in series [4] of 6.098 µg/mL (≈ 8.25 µM). Consider `O=C1CCC(N2C(=O)c3cccc(N4CCC(CN5CCN(C(=O)COCC(=O)Nc6ccc(NC(=O)c7ccc([N+](=O)[O-])o7)cc6)CC5)C4)c3C2=O)C(=O)N1` (stereo not drawn), for which the outcome in series [1] was inactive. Consider `O=C(/C=C/C(=O)N1CC(CN2CCN(c3cccc4c3C(=O)N(C3CCC(=O)NC3=O)C4=O)CC2)C1)Nc1ccc(NC(=O)c2ccc([N+](=O)[O-])o2)cc1` (stereo not drawn), for which, in series [1], the Activity worked out at 43.6%. The compound further came in with a solubility in series [4] of 6.485 µg/mL (≈ 8.78 µM). `Cc1ncsc1-c1ccc(CNC(=O)[C@@H]2C[C@@H](O)CN2C(=O)[C@@H](NC(=O)CCC(=O)NCCCNC(=O)c2cccc(S(=O)(=O)n3cc(C(=O)NCCCCCC(=O)Oc4ccc(NC(=O)c5ccc(-c6ccccc6)cc5)cc4NS(=O)(=O)c4ccc(F)cc4)ccc3=O)c2)C(C)(C)C)cc1` returned a DC50 in series [6] of 530 nM. In the case of `O=C1CCC(N2C(=O)c3cccc(N4CCC(N5CCN(C(=O)CCC(=O)Nc6ccc(NC(=O)c7ccc([N+](=O)[O-])o7)cc6)CC5)C4)c3C2=O)C(=O)N1` (stereo not drawn), in series [1], the outcome was inactive.
